# Tests used:
# PPARγ2 [1] = molecular target: T1, PPARγ2 (Homo sapiens, UniProt P37231); experiment: Transient transfection, PPARγ2 reporter (luciferase/β-galactosidase) in Hep G2 cells; assay type: cell-based; design: a construct containing the entire cDNA of the human PPARγ2 (hPPARγ2); expressed in transfected cells; host or cells: Hep G2
# T1 sequence (P37231 1-505): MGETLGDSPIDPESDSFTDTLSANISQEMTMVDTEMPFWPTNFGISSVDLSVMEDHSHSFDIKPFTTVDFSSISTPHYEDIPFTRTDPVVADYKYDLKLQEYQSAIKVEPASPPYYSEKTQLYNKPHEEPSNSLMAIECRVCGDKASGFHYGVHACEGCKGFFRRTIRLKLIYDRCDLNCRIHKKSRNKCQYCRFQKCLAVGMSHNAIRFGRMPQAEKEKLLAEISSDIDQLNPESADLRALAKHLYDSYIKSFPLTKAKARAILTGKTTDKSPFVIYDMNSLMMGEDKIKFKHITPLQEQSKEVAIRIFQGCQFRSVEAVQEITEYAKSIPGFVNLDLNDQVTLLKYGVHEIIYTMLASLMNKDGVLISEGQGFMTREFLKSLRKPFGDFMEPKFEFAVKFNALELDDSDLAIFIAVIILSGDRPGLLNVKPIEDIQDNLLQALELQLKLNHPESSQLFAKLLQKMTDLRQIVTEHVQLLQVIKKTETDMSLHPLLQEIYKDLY
# Procedure: Hep G2 cells were co-transfected with an expression vector for PPARγ2 (0.1 μg/well), pGL3-(Jwt)3TKLuc reporter construct (0.5 μg/well), and pCMV-βGal (0.5 μg/well), as a control of transfection efficiency (0.5 μg/well). The were then grown during 24 h in the presence or absence of indicated compound Activation is expressed as relative luciferase activity/β-galactosidase activity. Each point was performed in triplicate. This figure is representative of three independent experiments.
# (§1) RK13 cells (A and D), CV1 cells (B) or Hep G2 cells (C) were co-transfected with an expression vector for PPARγ2 (0.1 μg/well), pGL3-(Jwt)3TKLuc reported construct (0.5 μg/well), and pCMV-βGal (0.5 μg/well), as a control of transfection efficiency (0.5 μg/well). They were then grown during 24 h in the presence or absence of indicated compound. Activation is expressed as relative luciferase activity/β ? galactosidase activity. Each point was performed in triplicate, and each figure i ? representative of four independent experiments.
# (§2) The CV1, RK-13, and Hep G2 cell lines were obtained from ATCC (Rockville, Md.). Cells were maintained in Dulbecco's modified Eagle's minimal essential medium (DMEM) supplemented with 10% fetal calf serum (FCS), L-glutamine, and antibiotics. Transfections with chloramphenicol acetyltransferase (CAT) or luciferase (luc.) reporter constructs were carried out exactly as described previously (Schoonjans et al., 1996). The pGL3-(Jwt)3TKLuc and the pGL3-(Jwt)3TKCAT reporter constructs contain both three tandem repeats of the J site of the apolipoprotein A-II promoter cloned upstream of the herpes simplex virus thymidine kinase (TK) promoter and the luciferase or the CAT reporter genes respectively (Vu-Dac et al., 1995). The following expression vectors were used; pSG5-hPPARγ2, a construct containing the entire cDNA of the human PPARγ2 (hPPARγ2) (Fajas et al., 1997); pSG5-mPPARα (Isseman et al., 1993); and pCMV-βGal, as a control of transfection efficiency.
# PPARγ = molecular target: T2, PPARγ (Homo sapiens, UniProt P37231); experiment: Protease protection (partial trypsin digestion of 35S-PPARγ); assay type: binding; settings: compound 10^−4M, increasing trypsin
# T2 construct: a construct containing the entire cDNA of the human PPARγ2 (hPPARγ2); host or cells: cell-free coupled transcription/translation system
# T2 sequence (P37231 1-505): T1 sequence (P37231 1-505)
# Procedure: The pSG5-hPPARγ2 plasmid was used to synthesize ? ^35S-radiolabeled PPARγ in a coupled transcription/translation system according to the protocol of the manufacturer (Promega, Madison, Wis.). The transcription/translation reactions were subsequently aliquoted into 22.5 μl and 2,5 μl of phosphate buffered saline +/− compound were added. The mixture was separated into 4.5 μl aliquots and 0.5 μl of distilled water or distilled water-solubilized trypsin were added. The protease digestion were allowed to proceed for 10 min at 25° C. and terminated by the addition denaturing loading buffer. After separation of the digestion products in a gel SDS ? PAGE 12% acrylamide, the gel was fixed in 10% acetic acid (v/v) 30% ethanol (v/v) ? for 30 min, treated in Amplify™ (Amersham, Orsay, France) and dried. The radiolabeled digestion products were visualized by autoradiography.
# PPARγ DE/p300Nt-GST = PPARγ DE/p300Nt-GST (Homo sapiens, UniProt P37231)
# PPARγ DE/p300Nt-GST, sequence (Q09472 2-516 partner limits assumed, one chain of several): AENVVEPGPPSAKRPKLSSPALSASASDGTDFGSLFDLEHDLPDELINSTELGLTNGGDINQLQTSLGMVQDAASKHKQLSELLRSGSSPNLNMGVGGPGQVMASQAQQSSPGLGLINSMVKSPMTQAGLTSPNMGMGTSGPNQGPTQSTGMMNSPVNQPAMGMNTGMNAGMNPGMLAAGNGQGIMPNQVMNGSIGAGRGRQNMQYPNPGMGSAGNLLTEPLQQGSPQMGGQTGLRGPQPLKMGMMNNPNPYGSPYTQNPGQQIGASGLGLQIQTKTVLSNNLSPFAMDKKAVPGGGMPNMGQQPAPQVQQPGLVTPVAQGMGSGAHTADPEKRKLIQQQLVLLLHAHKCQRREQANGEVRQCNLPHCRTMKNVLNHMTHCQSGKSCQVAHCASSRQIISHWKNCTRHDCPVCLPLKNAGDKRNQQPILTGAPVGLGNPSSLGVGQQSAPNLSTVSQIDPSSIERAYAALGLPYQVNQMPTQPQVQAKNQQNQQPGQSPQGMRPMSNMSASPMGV
# Text: The beads were then washed and the samples separated on SDS-PAGE and blotted. The blot was developed with anti-histidine antibodies.
# The p300Nt-GST, fusion protein was generated by cloning the N-terminal part of the p300 protein (a.a. 2 to 516) downstream of the glutathione-S-transferase (GST) protein in the pGex-T1 vector (Pharmacia, Orsay, France). The fusion proteins were then expressed in Escherichia coli and purified on a glutathione affinity matrix (Pharmacia). Human PPARγ (aa. 203 to 477 of PPARγ) was subcloned into the pET15b (Novagen, Madison, Wis.) expression vector. The his-tagPPARγ2DE203-477 proteins were produced as follow. The protein was purified using a metal chelate affinity column with an affinity column Co^2+ coupled agarose (High Trap chelatin, Pharmacia). The protein was eluted with 20 mM Tris-HCl, 500 M NaCl, 130 mM imidazole and 1-2 propanediol 2.5% (pH 8.5). A second purification step was made by gel filtration (Superdex 200 16/60, Pharmacia). The protein was eluted with 20 mM Tris-HCl, 100 mM NaCl, 5 mM DTT and 1-2 propanediol 2,5% (pH 8.5).
# PPARγ2 [2] = molecular target: T1, PPARγ2; experiment: Transient transfection, PPARγ2 reporter in CV1 cells; assay type: cell-based; design: a construct containing the entire cDNA of the human PPARγ2 (hPPARγ2); expressed in transfected cells; host or cells: Hep G2, RK13 or CV1 cells; settings: simian renal cells CV1
# Procedure: as §1
# as §2, with “The following expression vectors were used; pSG5-hPPARγ2, a construct containing the entire cDNA of the human PPARγ2 (hPPARγ2) (Fajas et al., 1997); pSG5-mPPARα (Isseman et al., 1993); and pCMV-βGal, as a control of transfection efficiency.” left out
# PPARγ2 [3] = molecular target: T1, PPARγ2; experiment: Transient transfection, PPARγ2 reporter in RK13 cells; assay type: cell-based; design: a construct containing the entire cDNA of the human PPARγ2 (hPPARγ2); expressed in transfected cells; host or cells: Hep G2, RK13 or CV1 cells
# Procedure: as §1, §2
# 3T3-L1 cells = experiment: Adipocyte differentiation of 3T3-L1 cells (Northern blot, Oil Red O); assay type: cell-based, murine
# Procedure: Confluent 3T3-L1 cells were incubated with 2 μM insulin, 1 μM dexamethasone, and 0.25 mM isobuthyl methyl xanthine for two days. […] A: RNA was isolated from 3T3-L1 cells after different times of differentiation induction. Blots were hybridized with 36B4 (to control for RNA loading); LPL or aP2 cDNAs. B: Cells were stained with Oil Red O after 6 days. LPL: lipoprotein lipase.
# 3T3-L1 cells (ATCC, Rockville, Md.) were grown to confluence in medium ? (Dulbecco's modified Eagle's Medium with 10% fetal calf serum, 100 units/n ? penicillin, and 100 μg/ml streptomycin). Confluent cells were incubated in medium ? containing 2 μM insulin, 1 μM dexamethasone, and 0.25 mM isobuthyl meth ? xanthine for two days. Then, the cells were incubated in medium A in presence ? absence of PPARγ y agonist for 4 days, changing the medium every 2 day ? Adipogenesis was evaluated by analysis of the expression of adipocyte-specif ? markers and by staining of lipids with Oil Red O (Chawla and Lazar, 1994).
# Adipogenesis was monitored by analysis of lipoprotein lipase (LPL) and aP2 mRNA levels as markers of adipocyte differentiation and by studying morphological changes associated with the differentiation process.
# C57BL/6j mice = experiment: Intraperitoneal glucose tolerance test in C57BL/6j mice; assay type: in vivo; settings: for maximum glucose levels in IPGTT: 7 days, control 440
# Procedure: Mice were treated with 2 different doses of F-L-Leu (10 and 30 mg/kg/days) during 7 days and then IPGTT was performed.
# [4] = 3T3-L1, 10^−5 M, extent close to rosiglitazone 10^−7 M
# Procedure for db/db mice: Intraperitoneal glucose tolerance test (IPGTT) in C57BL/6j (A) or db/db (B) mice 10 to 12 weeks old (n=8).
# All mice were maintained in a temperature-controlled (25° C.) facility with a strict 12 h ? light/dark cycle and were given free access to food (standard mice chow; DO4, UAR ? France) and water.
# C57B1/6J and db/db mice (8 per group) were obtained through the Janvier laboratorie ? (Laval-Le Genest, France).
compound,measurement,setting,value
"CC(C)CC(NC(=O)OCC1c2ccccc2-c2ccccc21)C(=O)O [F-L-Leu, N-(9-fluroroenylmethyloxycarbonyl)-L-Leucine]",optimal concentration for PPARγ activation compared with PG J2,PPARγ2 [1]; HepG2,similar
same,optimal concentration relative to concentration of rosiglitazone or pioglitazone necessary to reach the same efficacy,"PPARγ2 [1]; HepG2, fold higher, pioglitazone data not shown",100 fold
same,PPARγ activation (relative luciferase activity/β-galactosidase activity),"PPARγ2 [1]; HepG2 cells, pSG5-hPPARγ2, 24 h, F-L-leu at 10^−5 M",Significant PPARγ activity
same,concentration required for optimal PPARγ activation,PPARγ2 [1]; human HepG2 cells,10^−5 M
same,potency in transfection experiments relative to rosiglitazone,"PPARγ2 [1]; summary statement, cell line not named",two orders of magnitude less potent
same,protection of PPARγ from trypsin digestion (conformation change),PPARγ,produced a protease protection
same,liver weight relative to control or rosiglitazone-treated mice,db/db mice; data not shown,tendency to diminution of the liver weight
same,insulin sensitivity compared with an equivalent dose of rosiglitazone,"db/db mice; db/db mice, 1 mg/kg/day as printed",improved insulin sensitivity more dramatically
same,maximal glycemia in IPGTT,"db/db mice; db/db, 10 mg/kg/day i.p., 7 days, DMSO control 500",420 mg/dL
same,time of maximal glucose level after glucose injection,"db/db mice; db/db, 10 mg/kg/day, 7 days",20 min
same,time to decrease to normal (100 mg/dl) glucose values,"db/db mice; db/db, 10 mg/kg/day, 7 days",≤ 120 min
same,fasting serum insulin levels (mean),"db/db mice; db/db, 7 days treatment, DMSO group 180",70 μUI/mL
same,potency relative to rosiglitazone (fold lower),PPARγ DE/p300Nt-GST; p300 pull-down,2- to 3 fold
same,formation of PPARγ DE/p300Nt-GST complexes,"PPARγ DE/p300Nt-GST; vs DMSO, rosiglitazone 10^−4 M, F-L-Leu 10^−3 M",effectively induced
same,concentration required for optimal PPARγ activation,PPARγ2 [2],10^−5 M
same,concentration giving maximal PPARγ activation,PPARγ2 [3]; RK13 cells,10^−5 M
same,modification of PPARγ activity when added to a saturating concentration of rosiglitazone,"PPARγ2 [3]; RK13 cells, 10^−5 M added",No significant modification
same,concentration of optimal PPARγ activity / activation,PPARγ2 [3]; rabbit kidney RK13 cells,10^−5 M
same,LPL mRNA levels,3T3-L1 cells; [4],significantly stimulated
same,aP2 mRNA levels,3T3-L1 cells; [4],significantly stimulated
same,neutral lipid accumulation (Oil Red O staining),"3T3-L1 cells; 3T3-L1, 6 days, F-L-Leu 10^−5 M, rosiglitazone 10^−7 M",capable of inducing neutral lipid accumulation
same,insulin sensitivity in normal animals,C57BL/6j mice; 30 mg/kg/day,significantly improve insulin sensitivity
same,clearance of intraperitoneally administered glucose vs vehicle,"C57BL/6j mice; C57BL/6j, 10 mg/kg/day",comparable rate
same,maximum glucose levels in IPGTT,"C57BL/6j mice; C57BL/6j, 10 mg/kg/day i.p.",440 mg/dL
same,maximum glucose levels in IPGTT,"C57BL/6j mice; C57BL/6j, 30 mg/kg/day i.p.",320 mg/dL
same,area under the curve in IPGTT,"C57BL/6j mice; C57BL/6j, 30 mg/kg/day, vs control or lower dose",significantly lower

# Source: patent US20040082623A1, “Fmoc-l-leucine and derivatives thereof as ppar-gamma agonists” (priority 2003, published 2004)
